The structures appear in SMILES notation. Where two headings read alike, the source gives them in different places.

The test system of this assay is HCV 1b_Huh-Luc/Neo-ET cell line persistently expressing a bicistronic genotype 1b replicon in Huh 7 cells. Briefly: HCV replicon assay (luciferase readout, 72 h). It is filed as cell-based, HCV genotype 1b. The conditions noted are these: Hepatitis C virus. The method in brief:
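Huh 7 cells carrying a bicistronic genotype 1b luciferase/neo replicon received compound in triplicate the day after plating. After 72 h, replicon levels were read as Bright-Glo luciferase activity, expressed as % of control; EC50 was fitted with a four-parameter logistic and determined several times.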
On the technique in general: Replicon systems follow genome replication, usually without infectious particles.

The mark [1] stands for this setting: Huh-7, 72 h, read-out: Inhibition of HCV genotype 1b.
The mark [2] stands for this setting: Huh-7, read-out: Inhibition of HCV genotype 1b.

In the case of `CS(=O)(=O)N[C@@H](C(=O)N1CCC[C@H]1c1ncc(-c2ccc(C#Cc3ccc(-c4cnc([C@@H]5CCCN5C(=O)[C@@H](c5ccccc5)N5CCOCC5)[nH]4)cc3)cc2)[nH]1)c1ccccc1` [Compound 232], the EC50 under setting [1] was less than 1 nM.

As for `COC(=O)N[C@H](C(=O)N1CCN(C(=O)OC)C[C@H]1c1ncc(-c2ccc(C#Cc3ccc4nc([C@@H]5CCCN5C(=O)[C@H](NC(=O)OC)c5ccccc5)[nH]c4c3)cc2)[nH]1)C(C)C` [Compound 1230], under setting [2], the EC50 was less than 1 nM.

Turning to `C[C@H]1OC(=O)N(C)[C@@H]1C(=O)N1CCC[C@H]1c1ncc(-c2ccc(C#Cc3ccc(-c4cnc([C@@H]5CCCN5C(=O)[C@@H]5[C@@H](C)OC(=O)N5C)[nH]4)cc3)cc2)[nH]1` [Compound 980], the EC50 under setting [1] was in the range of 10 to 999 nM.

On to `COC(=O)N[C@@H](C(=O)N1CCC[C@H]1c1ncc(C#Cc2ccc(-c3ccc(-c4cnc([C@@H]5CCCN5C(=O)[C@@H](c5ccccc5)N(C)C)[nH]4)cc3)cc2)[nH]1)c1ccccc1` [Compound 755], for which the EC50 under setting [1] is less than 1 nM.

For `COC(=O)N[C@H](C(=O)N1CCC[C@H]1c1nc2c([nH]1)-c1ccc(C#Cc3ccc4nc([C@@H]5CCCN5C(=O)[C@H](NC(=O)OC)c5ccccc5)[nH]c4c3)cc1CC2)C(C)C` [Compound 1103], under setting [1], the EC50 is less than 1 nM.

`O=C(N[C@@H](C(=O)N1CCC[C@H]1C(=O)Nc1ccc(C#Cc2cnc([C@@H]3CCCN3C(=O)[C@H](NC(=O)C3CC3)c3ccccc3)[nH]2)cc1)c1ccccc1)C1CC1` [Compound 117]: under setting [1], the EC50 was less than 1 nM.

Regarding `COC(=O)N[C@H](C(=O)N1CCC[C@H]1c1ncc(-c2ccc(C#Cc3ccc4c(ccc5nc([C@@H]6CCCN6C(=O)[C@@H](NC(=O)OC)C6CCOCC6)[nH]c54)c3)cc2)[nH]1)C(C)C` [Compound 1272], the EC50 under setting [2] was less than 1 nM.

Take `COC(=O)NC(C(=O)N1CCC[C@H]1c1nc2ccc(C#Cc3ccc4cc(-c5cnc([C@@H]6CCCN6C(=O)[C@@H](NC(=O)OC)C(C)C)[nH]5)ccc4n3)cc2[nH]1)C(C)C` (stereo partly drawn) [Compound 1107]: the EC50 under setting [1] was less than 1 nM.

`COC(=O)N[C@H](C(=O)N1CCC[C@H]1c1nc2ccc3cc(C#Cc4ccc5nc([C@@H]6CCCN6C(=O)[C@H](NC(=O)OC)c6ccccc6)[nH]c5c4)ccc3c2[nH]1)C(C)C` [Compound 1275]: under setting [2], the EC50 is less than 1 nM.

For `COC(=O)N[C@H]1CCC[C@@H]1C(=O)N1CCC[C@H]1c1ncc(-c2ccc(C#Cc3ccc4nc([C@@H]5CCCN5C(=O)[C@H]5CCC[C@@H]5NC(=O)OC)[nH]c4c3)cc2)[nH]1` [Compound 1059], under setting [1], the EC50 fell in the range of 10 to 999 nM.

`O=C(N[C@@H](C(=O)N1CCC[C@H]1c1ncc(-c2ccc(C#Cc3ccc(-c4cnc([C@@H]5CCCN5C(=O)[C@@H](c5ccccc5)N5CCCC5)[nH]4)cc3)cc2)[nH]1)c1ccccc1)C1CC1` [Compound 217]: the EC50 under setting [1] is less than 1 nM.

With `CN1CCN(C(=O)N[C@@H](C(=O)N2CCC[C@H]2c2ncc(-c3ccc(C#Cc4ccc(-c5cnc([C@@H]6CCCN6C(=O)[C@H](NC(=O)C6CC6)c6ccccc6)[nH]5)cc4)cc3)[nH]2)c2ccccc2)CC1` [Compound 238], under setting [1], the EC50 was less than 1 nM.

For `CC(C)[C@@H](NC(=O)C1CC1)C(=O)N1CCC[C@H]1c1ncc(C#Cc2ccc(-c3cnc([C@@H]4CCCN4C(=O)[C@H](NC(=O)C4CC4)C(C)C)[nH]3)cc2)[nH]1` [Compound 107], the EC50 under setting [1] fell in the range of 1 to 9.9 nM.

As to `CC[C@H](C)[C@H](NC(=O)OC)C(=O)N1CCC[C@H]1c1ncc(-c2ccc3cc(C#Cc4[nH]c([C@@H]5CCCN5C(=O)[C@@H](NC(=O)OC)[C@@H](C)OC)nc4C(F)(F)F)ccc3c2)[nH]1` [Compound 1259], under setting [2], the EC50 is less than 1 nM.

Consider `CC(C)[C@H](NC(=O)N1CCNCC1)C(=O)N1CCC[C@H]1c1ncc(-c2ccc(C#Cc3ccc(-c4cnc([C@@H]5CCCN5C(=O)[C@@H](NC(=O)N5CCNCC5)C(C)C)[nH]4)cc3)cc2)[nH]1` [Compound 967], for which the EC50 under setting [1] is 10 to 999 nM.

On to `CC(C)(C)OC(=O)N[C@@H](C(=O)N1CCC[C@H]1C(=O)NCCc1ccc(C#Cc2cnc([C@@H]3CCCN3C(=O)[C@H](NC(=O)OC(C)(C)C)c3ccccc3)[nH]2)cc1)c1ccccc1` [Compound 124], for which the EC50 under setting [1] is less than 1 nM.

On to `O=C(N[C@@H](C(=O)N1CCC[C@H]1c1ncc(C#Cc2ccc(-c3ccc(-c4cnc([C@@H]5CCCN5C(=O)[C@H](NC(=O)N5CC[C@@H](O)C5)c5ccccc5)[nH]4)cc3)cc2)[nH]1)c1ccccc1)N1CC[C@@H](O)C1` [Compound 763], for which the EC50 under setting [1] was less than 1 nM.

Consider `CC[C@H](C)[C@H](NC(=O)OC)C(=O)N1CCC[C@H]1c1nc(C(F)(F)F)c(C#Cc2ccc3cc(-c4cnc([C@@H]5CCCN5C(=O)[C@@H](NC(=O)OC)[C@@H](C)OC)[nH]4)ccc3c2)[nH]1` [Compound 1262], for which, under setting [2], the EC50 is less than 1 nM.

Regarding `O=C(N[C@@H](C(=O)N1CCC[C@H]1c1ncc(-c2ccc(C#Cc3ccc(-c4cnc([C@@H]5CCCN5C(=O)[C@@H](c5ccccc5)N5CCOCC5)[nH]4)cc3)cc2)[nH]1)c1ccccc1)C1CC1` [Compound 237], under setting [1], the EC50 was less than 1 nM.

For the compound `CCN(CC)[C@@H](C(=O)N1CCC[C@H]1c1ncc(-c2ccc(C#Cc3ccc(-c4cnc([C@@H]5CCCN5C(=O)[C@H](NC(=O)OC)c5ccccc5)[nH]4)cc3)cc2)[nH]1)c1ccccc1` [Compound 175], the EC50 under setting [1] is less than 1 nM.

In the case of `COC(=O)N[C@@H](C(=O)N[C@@H](C)c1ncc(-c2ccc(C#Cc3ccc4nc([C@@H]5CCCN5C(=O)[C@H](NC(=O)OC)c5ccccc5)[nH]c4c3)cc2)[nH]1)c1ccccc1` [Compound 1226], under setting [2], the EC50 is less than 1 nM.

For the compound `COC(=O)N[C@H](C(=O)N1CCC[C@H]1c1ncc(-c2ccc(C#Cc3ccc(-c4cnc([C@H](C)NC(=O)[C@@H](c5ccccc5)N(C)C)[nH]4)cc3)cc2)[nH]1)C(C)C` [Compound 983], under setting [1], the EC50 is less than 1 nM.

In the case of `COC(=O)N[C@@H](C(=O)N1CCC[C@H]1c1ncc(C#Cc2ccc(-c3ccc(-c4cnc([C@@H]5CCCN5C(=O)[C@@H](c5ccccc5)N5CCCC5)[nH]4)cc3)cc2)[nH]1)c1ccccc1` [Compound 759], the EC50 under setting [1] was less than 1 nM.

Turning to `O=C(N[C@@H](C(=O)N1CCC[C@H]1c1nc(-c2ccc3cc(C#Cc4cnc([C@@H]5CCCN5C(=O)[C@H](NC(=O)N5CC[C@@H](O)C5)c5ccccc5)[nH]4)ccc3c2)c[nH]1)c1ccccc1)N1CC[C@@H](O)C1` [Compound 807], the EC50 under setting [1] fell in the range of 1 to 9.9 nM.

Consider `COC(=O)N[C@@H](C(=O)N1CCC[C@H]1c1ncc(-c2ccc(C#Cc3ccc(-c4cnc([C@@H]5CCCN5C(=O)[C@H](NC(=O)C5CC5)c5ccccc5)[nH]4)cc3)cc2)[nH]1)c1ccccc1` [Compound 218], for which the EC50 under setting [1] is less than 1 nM.

`C[C@@H](NC(=O)[C@@H]1CCCN1C(=O)[C@H](NC(=O)C1CC1)c1ccccc1)c1ccc(C#Cc2ccc(-c3cnc([C@@H]4CCCN4C(=O)[C@H](NC(=O)C4CC4)c4ccccc4)[nH]3)cc2)cc1` [Compound 168]: the EC50 under setting [1] is less than 1 nM.

As for `COC(=O)N[C@@H](C(=O)N1CCC[C@H]1c1ncc(-c2ccc(C#Cc3ccc(-c4cnc([C@@H]5CCCN5C(=O)[C@H](NC(=O)[C@H]5CCCO5)c5ccccc5)[nH]4)cc3)cc2)[nH]1)c1ccccc1` [Compound 201], the EC50 under setting [1] is less than 1 nM.

As to `O=S(=O)(c1ccccc1)N1CCC[C@H]1c1ncc(-c2ccc(C#Cc3ccc4nc([C@@H]5CCCN5S(=O)(=O)c5ccccc5)[nH]c4c3)cc2)[nH]1` [Compound 1038], the EC50 under setting [1] is greater than 1000 nM.

With `COC(=O)N[C@H](C(=O)N1CCC[C@H]1c1ncc(-c2ccc(C#Cc3ccc(-c4cnc([C@@H]5CCCN5C(=O)[C@@H](c5ccccc5)N5CCOCC5)[nH]4)cc3)cc2)[nH]1)C(C)C` [Compound 987], under setting [1], the EC50 is less than 1 nM.

Consider `COC(=O)N[C@@H](C(=O)N1CCC[C@H]1c1ncc(-c2ccc(C#Cc3ccc(-c4cnc([C@@H]5CCCN5C(=O)[C@@H](c5ccccc5)N(C)C)[nH]4)cc3)cc2)[nH]1)c1ccccc1` [Compound 174], for which the EC50 under setting [1] was less than 1 nM.

Turning to `O=C(N[C@@H](C(=O)N1CCC[C@H]1c1ncc(-c2ccc(C#Cc3ccc(-c4cnc([C@@H]5CCCN5C(=O)[C@H](NC(=O)N5CCC(O)CC5)c5ccccc5)[nH]4)cc3)cc2)[nH]1)c1ccccc1)N1CCC(O)CC1` [Compound 251], the EC50 under setting [1] is less than 1 nM.

Turning to `COC(=O)N[C@H](C(=O)N1CCC[C@H]1c1ncc(-c2ccc(C#Cc3ccc(-c4cnc([C@@H]5CCCN5C(=O)[C@H](NC(=O)OC)c5ccccc5OC)[nH]4)cc3)cc2)[nH]1)[C@@H](C)OC` [Compound 1211], the EC50 under setting [2] was less than 1 nM.

`COC(=O)N[C@H](C(=O)N(C)[C@@H](C)c1ncc(-c2ccc(C#Cc3ccc(-c4cnc([C@@H]5CCCN5C(=O)[C@@H](NC(=O)OC)C(C)C)[nH]4)cc3)cc2)[nH]1)C(C)C` [Compound 267]: the EC50 under setting [1] is less than 1 nM.

With `COC(=O)N[C@H](C(=O)N1CCC[C@H]1c1ncc(-c2ccc(C#Cc3ccc(-c4cnc([C@@H]5CCCN5C(=O)[C@@H](NC(=O)OC)[C@@H](C)OC)[nH]4)cc3)cc2)[nH]1)[C@@H](C)OC` [Compound 284], under setting [1], the EC50 is less than 1 nM.

`COC(=O)NC(C(=O)N1CCC[C@H]1c1ncc(-c2ccc(C#Cc3ccc(-c4cnc([C@@H]5CCCN5C(=O)[C@H](NC(=O)OC)[C@H](C)O)[nH]4)cc3)cc2)[nH]1)[C@H](C)O` (stereo partly drawn) [Compound 978]: under setting [1], the EC50 is 10 to 999 nM.

With `O=C(N[C@@H](C(=O)N1CCC[C@H]1c1cc(-c2ccc(C#Cc3ccc(-c4cnc([C@@H]5CCCN5C(=O)[C@H](NC(=O)C5CC5)c5ccccc5)[nH]4)cc3)cc2)n[nH]1)c1ccccc1)C1CC1` [Compound 212], the EC50 under setting [1] was less than 1 nM.

Regarding `COC(=O)N[C@H](C(=O)N1CCC[C@H]1CNC(=O)c1ccc(C#Cc2ccc3nc([C@@H]4CCCN4C(=O)[C@@H](NC(=O)OC)C(C)C)[nH]c3c2)cn1)C(C)C` [Compound 1240], the EC50 under setting [2] is 10 to 999 nM.

In the case of `COC(=O)N[C@H](C(=O)N1CCC[C@H]1c1nc2ccc(C#Cc3ccc4nc([C@@H]5CCCN5C(=O)[C@@H](NC(=O)OC)C(C)C)[nH]c4c3)cc2[nH]1)C(C)C` [Compound 852], the EC50 (Huh-7, 72 h, read-out: Inhibition of HCV) is less than 1 nM.

As to `O=C([C@H](O)c1ccccc1)N1CCC[C@H]1c1ncc(C#Cc2ccc(-c3cnc([C@@H]4CCCN4C(=O)[C@H](O)c4ccccc4)[nH]3)cc2)[nH]1` [Compound 112], the EC50 under setting [1] is less than 1 nM.

Values taken from patent US20130296311A1, “INHIBITORS OF HCV NS5A” (PRESIDIO PHARMACEUTICALS, INC., priority 2010, published 2013).
